Read-outs that look alike come from different tables or passages of the source.
Columns and labels:
C57BL/6JRj mice = experiment: 40 Hz ASSR, MK-801 induced deficit; type: in vivo; details: mouse
Excerpt: We have also employed here event-related potentials (ERPs) and auditory-evoked oscillations, which serve as critical translational biomarkers, to assess the impact of our investigational drug on sensory processing and cognitive functions, providing valuable data on its potential efficacy in treating disorders like schizophrenia. Detailed description of the methodology, setup specifications and recording procedure and analysis of the 40 Hz auditory steady-state response (ASSR) protocol can be found in Schuelert et al.[27] […] Reduced entrainment of gamma oscillation reflects abnormalities in basic sensory registration and processing but is also associated with impaired higher cognitive functions.[32] ASSR can also be reliably impaired preclinically by different NMDA receptor antagonists.[33],[34] […] Abnormalities associated with the filtering or “gating” of sensory information are among the most consistent findings in schizophrenia research.[35] N100 gating deficits also correlated with negative-cognitive deficits dimensions of schizophrenia[36] and can be modeled preclinically with NMDA receptor antagonists.[37]19d reversed N1 sensory gating deficit induced by MK-801 with the highest dose of 10 mg/kg (Figure 12B). Mean plasma exposures in satellite mice after subcutaneous administration of 19d at 0.8, 4, and 10 mg/kg were 187, 1207, and 2490 nM, respectively.
The mGlu2/3 selective agonist LY379268 was used here as a positive control, applied also s.c. at 3 mg/kg dose. […] Data are shown as mean ± SEM (n = 13–19 for each treatment group). *P < 0.05, **P < 0.01, ***P < 0.005 compared with vehicle; #P < 0.05, ##P < 0.01 compared with MK-801. […]
Mice were placed in a plexiglass cage in an attenuated sound box and allowed to adapt to their environment for 20 min before subcutaneous administration of VU6024578 0.8, 4, and 10 mg/kg or vehicle (20% HP-β-CD in water). […] An infrared sensor on the Neurologger recorded the infrared trigger signals and trigger signals were saved in an individual trigger channel. […]

IV dog PK = type: in vivo; details: 0.5 mg/kg IV; for C0: plasma
Protocol: Deeper profiling began with IV dog PK (0.5 mg/kg, n = 3 male beagles). […] Was this a mechanism-based toxicity in dog? Could there be dog-specific pharmacology of mGlu1 activation? Were these AEs derived from the 19d chemotype? Could a mGlu1/mGlu5 heterodimer be responsible for the observed AEs? […] In an attempt to address the chemotype question, we evaluated PAM 4 (VU6004909),[8] an early generation rodent in vivo tool compound, for the first time in dog PK. […] of the study with 19d, PAM 4 produced no AEs in dog. […] Therefore, more molecular pharmacology and PK studies as well as additional chemically distinct mGlu1 PAM chemotypes are required to understand the AEs elicited by an mGlu1 PAM in dogs, an otherwise very promising target for the treatment of schizophrenia.

rats = experiment: adverse events in rats; type: in vivo, rat; details: much higher exposures than in dog
5-HT1B = target: T1, 5-HT1B (Homo sapiens, UniProt P28222); experiment: Eurofins radioligand binding panel; details: antagonist radioligand
T1 construct: Eurofins
Excerpt: (§1) Table S1. Eurofins Lead Profiling Screen Data
(§2) This is a radioligand binding panel of 80 targets including GPCRs, ion channels, transporters and nuclear hormones. Biochemical assay results are presented as the percent inhibition of specific […]
(§3) Results showing an inhibition or stimulation higher than 50% are considered to represent significant effect and are highlighted

5-HT3 = target: T2, 5-HT3 (Homo sapiens, UniProt P46098); experiment: Eurofins radioligand binding panel; details: antagonist radioligand
T2 construct: Eurofins
Excerpt: as §1, §2, §3

5-HT7 = target: T3, 5-HT7 (Homo sapiens, UniProt P34969); experiment: Eurofins radioligand binding panel; details: agonist radioligand
T3 construct: Eurofins
Excerpt: as §1, §2, §3

Cl- channel (GABA-gated) = experiment: Eurofins radioligand binding panel; details: antagonist radioligand
Excerpt: as §1, §2, §3

IP (PGI2) = target: T4, IP (PGI2) (Homo sapiens, UniProt P43119); experiment: Eurofins radioligand binding panel; details: agonist radioligand
T4 construct: Eurofins
Excerpt: as §1, §2, §3

M2 = target: T5, M2 (Homo sapiens, UniProt P08172); experiment: Eurofins radioligand binding panel; details: antagonist radioligand
T5 construct: Eurofins
Excerpt: as §1, §2, §3

NK1 = target: T6, NK1 (Homo sapiens, UniProt P25103); experiment: Eurofins radioligand binding panel; details: agonist radioligand
T6 construct: Eurofins
Excerpt: as §1, §2, §3

Y1 = target: T7, Y1 (Homo sapiens, UniProt P25929); experiment: Eurofins radioligand binding panel; details: agonist radioligand
T7 construct: Eurofins
Excerpt: as §1, §2, §3

delta (DOP) = target: T8, delta (DOP) (Homo sapiens, UniProt P41143); experiment: Eurofins radioligand binding panel; details: agonist radioligand
T8 construct: Eurofins
Excerpt: as §1, §2, §3

dopamine transporter = target: T9, dopamine transporter (Homo sapiens, UniProt Q01959); experiment: Eurofins radioligand binding panel; details: antagonist radioligand
T9 construct: Eurofins
Excerpt: as §1, §2, §3

kappa (KOP) = target: T10, kappa (KOP) (Homo sapiens, UniProt P41145); experiment: Eurofins radioligand binding panel; details: agonist radioligand
T10 construct: Eurofins
Excerpt: as §1, §2, §3

T3 sequence (P34969 whole entry): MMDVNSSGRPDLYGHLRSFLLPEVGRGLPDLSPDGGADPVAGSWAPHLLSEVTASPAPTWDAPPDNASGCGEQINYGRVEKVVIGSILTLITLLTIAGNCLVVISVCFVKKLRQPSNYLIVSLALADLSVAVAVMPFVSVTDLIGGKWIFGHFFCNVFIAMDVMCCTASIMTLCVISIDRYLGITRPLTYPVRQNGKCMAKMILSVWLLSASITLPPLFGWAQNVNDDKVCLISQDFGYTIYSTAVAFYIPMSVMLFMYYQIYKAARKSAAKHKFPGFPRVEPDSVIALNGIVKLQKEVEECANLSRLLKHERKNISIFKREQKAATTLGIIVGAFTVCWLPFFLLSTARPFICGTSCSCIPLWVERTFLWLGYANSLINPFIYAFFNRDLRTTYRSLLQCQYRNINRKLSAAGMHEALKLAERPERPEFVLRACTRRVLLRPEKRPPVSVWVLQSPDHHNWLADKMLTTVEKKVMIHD
T6 sequence (P25103 whole entry): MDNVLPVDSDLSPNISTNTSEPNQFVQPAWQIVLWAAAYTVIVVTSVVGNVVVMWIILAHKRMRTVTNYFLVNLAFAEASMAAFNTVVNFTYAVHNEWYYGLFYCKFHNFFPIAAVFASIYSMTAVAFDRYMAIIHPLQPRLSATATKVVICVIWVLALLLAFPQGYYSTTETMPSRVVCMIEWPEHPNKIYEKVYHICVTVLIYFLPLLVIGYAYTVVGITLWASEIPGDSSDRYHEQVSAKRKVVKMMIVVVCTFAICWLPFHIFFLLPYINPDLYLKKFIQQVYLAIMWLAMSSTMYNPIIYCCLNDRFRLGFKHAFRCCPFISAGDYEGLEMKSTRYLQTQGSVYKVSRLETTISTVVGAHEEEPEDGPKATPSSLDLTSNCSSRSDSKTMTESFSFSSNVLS
T7 sequence (P25929 whole entry): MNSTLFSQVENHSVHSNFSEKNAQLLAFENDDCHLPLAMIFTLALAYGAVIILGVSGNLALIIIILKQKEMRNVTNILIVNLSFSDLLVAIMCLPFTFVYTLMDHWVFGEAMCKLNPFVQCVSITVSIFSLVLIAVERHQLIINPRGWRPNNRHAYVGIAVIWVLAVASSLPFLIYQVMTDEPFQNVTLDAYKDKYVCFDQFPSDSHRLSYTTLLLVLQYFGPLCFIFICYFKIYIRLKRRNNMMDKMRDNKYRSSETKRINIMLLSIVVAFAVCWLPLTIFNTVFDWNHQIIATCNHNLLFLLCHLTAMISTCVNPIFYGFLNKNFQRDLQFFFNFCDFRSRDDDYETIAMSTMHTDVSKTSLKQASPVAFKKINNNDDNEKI
T10 sequence (P41145 whole entry): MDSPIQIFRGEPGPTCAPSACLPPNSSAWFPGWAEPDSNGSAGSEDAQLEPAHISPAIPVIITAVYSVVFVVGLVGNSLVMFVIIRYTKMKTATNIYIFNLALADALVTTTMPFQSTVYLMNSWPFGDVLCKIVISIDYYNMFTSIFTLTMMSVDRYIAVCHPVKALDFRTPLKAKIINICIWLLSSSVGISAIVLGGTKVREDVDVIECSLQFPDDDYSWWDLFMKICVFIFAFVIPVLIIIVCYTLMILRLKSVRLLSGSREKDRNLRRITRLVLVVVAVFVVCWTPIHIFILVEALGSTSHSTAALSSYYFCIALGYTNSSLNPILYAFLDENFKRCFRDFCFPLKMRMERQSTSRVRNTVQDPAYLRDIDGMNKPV
T8 sequence (P41143 whole entry): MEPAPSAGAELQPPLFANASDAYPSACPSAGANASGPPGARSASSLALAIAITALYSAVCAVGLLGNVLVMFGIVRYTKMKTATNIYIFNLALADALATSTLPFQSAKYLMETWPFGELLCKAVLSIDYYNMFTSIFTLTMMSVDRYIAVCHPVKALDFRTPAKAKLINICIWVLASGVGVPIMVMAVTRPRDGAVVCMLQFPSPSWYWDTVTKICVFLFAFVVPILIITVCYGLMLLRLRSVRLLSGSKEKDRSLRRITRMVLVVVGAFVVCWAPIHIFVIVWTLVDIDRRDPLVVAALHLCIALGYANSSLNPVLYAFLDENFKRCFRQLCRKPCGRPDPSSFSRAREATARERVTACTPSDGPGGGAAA
T1 sequence (P28222 whole entry): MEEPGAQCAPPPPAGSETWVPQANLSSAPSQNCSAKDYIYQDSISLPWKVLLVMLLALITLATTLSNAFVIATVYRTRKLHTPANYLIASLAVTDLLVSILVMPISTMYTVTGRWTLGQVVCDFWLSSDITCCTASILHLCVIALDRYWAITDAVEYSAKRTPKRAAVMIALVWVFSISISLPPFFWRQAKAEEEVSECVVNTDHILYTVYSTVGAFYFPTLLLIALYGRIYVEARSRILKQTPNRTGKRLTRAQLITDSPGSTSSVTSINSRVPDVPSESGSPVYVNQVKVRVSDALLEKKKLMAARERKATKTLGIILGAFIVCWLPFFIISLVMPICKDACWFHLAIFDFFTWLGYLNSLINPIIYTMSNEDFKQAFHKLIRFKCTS
T5 sequence (P08172 whole entry): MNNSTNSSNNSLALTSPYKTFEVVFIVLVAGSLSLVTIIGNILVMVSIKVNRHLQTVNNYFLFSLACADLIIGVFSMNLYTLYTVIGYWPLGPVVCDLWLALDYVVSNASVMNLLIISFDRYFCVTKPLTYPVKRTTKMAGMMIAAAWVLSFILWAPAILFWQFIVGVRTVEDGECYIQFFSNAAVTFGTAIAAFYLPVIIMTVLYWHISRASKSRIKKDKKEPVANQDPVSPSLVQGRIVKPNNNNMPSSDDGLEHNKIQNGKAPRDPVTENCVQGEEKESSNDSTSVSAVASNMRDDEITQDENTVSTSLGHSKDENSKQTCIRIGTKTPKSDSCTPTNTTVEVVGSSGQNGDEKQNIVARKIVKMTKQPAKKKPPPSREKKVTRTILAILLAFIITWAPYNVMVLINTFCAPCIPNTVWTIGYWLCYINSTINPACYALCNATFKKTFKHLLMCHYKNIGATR
T4 sequence (P43119 whole entry): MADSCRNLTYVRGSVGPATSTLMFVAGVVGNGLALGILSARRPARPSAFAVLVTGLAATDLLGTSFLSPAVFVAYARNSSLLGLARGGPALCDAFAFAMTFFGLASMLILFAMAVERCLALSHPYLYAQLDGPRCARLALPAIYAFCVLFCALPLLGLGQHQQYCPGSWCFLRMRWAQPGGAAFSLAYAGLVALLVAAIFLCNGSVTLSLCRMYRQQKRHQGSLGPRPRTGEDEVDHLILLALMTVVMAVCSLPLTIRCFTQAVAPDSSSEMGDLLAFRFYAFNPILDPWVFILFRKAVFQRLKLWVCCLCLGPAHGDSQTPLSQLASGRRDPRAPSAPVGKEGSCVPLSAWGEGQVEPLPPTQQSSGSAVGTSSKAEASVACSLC
T2 sequence (P46098 24-478): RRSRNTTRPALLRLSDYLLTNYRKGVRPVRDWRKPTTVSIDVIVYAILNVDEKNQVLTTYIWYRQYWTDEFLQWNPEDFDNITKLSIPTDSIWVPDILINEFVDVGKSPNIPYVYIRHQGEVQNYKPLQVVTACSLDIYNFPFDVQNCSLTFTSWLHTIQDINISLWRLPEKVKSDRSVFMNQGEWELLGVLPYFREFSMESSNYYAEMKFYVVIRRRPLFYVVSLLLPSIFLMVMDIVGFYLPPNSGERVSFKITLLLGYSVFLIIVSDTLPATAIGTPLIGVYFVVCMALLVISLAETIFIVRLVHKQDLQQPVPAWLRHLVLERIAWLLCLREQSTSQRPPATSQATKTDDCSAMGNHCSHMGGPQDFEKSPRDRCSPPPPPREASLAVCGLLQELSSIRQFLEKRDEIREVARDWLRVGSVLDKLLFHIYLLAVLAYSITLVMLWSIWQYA
T9 sequence (Q01959 whole entry): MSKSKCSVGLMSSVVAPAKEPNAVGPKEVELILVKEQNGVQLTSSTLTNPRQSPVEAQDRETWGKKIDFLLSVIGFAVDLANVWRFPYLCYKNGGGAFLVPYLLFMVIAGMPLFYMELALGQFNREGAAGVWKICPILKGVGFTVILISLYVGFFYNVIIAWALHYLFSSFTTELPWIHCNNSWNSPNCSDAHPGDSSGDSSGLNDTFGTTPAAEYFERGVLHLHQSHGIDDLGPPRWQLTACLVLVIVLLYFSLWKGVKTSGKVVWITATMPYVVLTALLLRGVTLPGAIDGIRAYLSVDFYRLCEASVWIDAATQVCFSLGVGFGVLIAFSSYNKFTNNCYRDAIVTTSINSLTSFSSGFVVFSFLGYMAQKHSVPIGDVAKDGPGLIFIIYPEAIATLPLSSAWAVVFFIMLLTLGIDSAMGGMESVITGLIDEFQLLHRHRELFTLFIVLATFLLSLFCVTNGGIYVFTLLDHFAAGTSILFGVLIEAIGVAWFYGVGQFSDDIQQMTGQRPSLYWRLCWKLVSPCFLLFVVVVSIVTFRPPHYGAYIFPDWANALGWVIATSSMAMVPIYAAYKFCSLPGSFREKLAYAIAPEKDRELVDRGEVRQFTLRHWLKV

Compound: Cn1nc(-c2ccnn2C)cc1CNC(=O)c1cc(-c2ccco2)ccc1Cl [Compound 19d, 2-Chloro-N-((1,2′-dimethyl-1H,2’H-[3,3′-bipyrazol]-5-yl)methyl)-5-(furan-2-yl)benzamide]
- reversal of MK-801 deficit in 40 Hz ASSR intertrial coherence (PFC) (C57BL/6JRj mice; 0.8 mg/kg s.c.): no significant effect
- reversal of MK-801 deficit in 40 Hz ASSR intertrial coherence (PFC) (C57BL/6JRj mice; 4 mg/kg s.c.): complete reversal
- reversal of MK-801 deficit in 40 Hz ASSR intertrial coherence (PFC) (C57BL/6JRj mice; 10 mg/kg s.c.): complete reversal
- CLp (IV dog PK): 5.4 mL/min/kg
- Vss (IV dog PK): 0.92 L/kg
- t1/2 (IV dog PK): 3.6 h
- C0 (IV dog PK; read-out: C0 exposure, total): 2050 nM
- C0 (IV dog PK; male, beagle, iv, 0.5 mg/kg, read-out: C0 exposure, unbound): 80 nM
- adverse events (AEs) in rats (rats): no AEs
- inhibition at 10 µM (5-HT1B): 11%
- inhibition at 10 µM (5-HT3): 2%
- inhibition at 10 µM (5-HT7): -4%
- % Inhibition at 10 µM (Cl- channel (GABA-gated)): 9%
- inhibition at 10 µM (IP (PGI2)): -7%
- inhibition at 10 µM (M2): 18%
- inhibition at 10 µM (NK1): 46%
- inhibition at 10 µM (Y1): -7%
- inhibition at 10 µM (delta (DOP)): 8%
- inhibition at 10 µM (dopamine transporter): 37%
- inhibition at 10 µM (kappa (KOP)): 11%

Reference: paper PMC11684029, “Discovery of VU6024578/BI02982816: An mGlu1 Positive Allosteric Modulator with Efficacy in Preclinical Antipsychotic and Cognition Models” (Journal of Medicinal Chemistry, 2024)
